Reference: ChEMBL document CHEMBL1201862, “PubChem BioAssay data set” (2004)
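A five-concentration, 48-hour dose response in 96-well plates underlies each endpoint, interpolated linearly between surrounding concentrations. The concentration for 50% growth inhibition is given as GI50.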 Calls of active or inactive are those of the source. Cut-off read from the data, not from the text of the source: active = GI50 up to about 1.1 µM and inactive = higher.

What was measured:
Experiment in all cases: NCI anticancer screen, dose series, 48 h
SK-MEL-2 = tested on: SK-MEL-2
Malme-3M = tested on: Malme-3M
TK-10 = tested on: TK-10
786-0 = tested on: 786-0
SK-OV-3 = tested on: SK-OV-3
NCI-H23 = tested on: NCI-H23
SF-268 = tested on: SF-268
A498 = tested on: A498
MOLT-4 = tested on: MOLT-4
CAKI-1 = tested on: CAKI-1
OVCAR-5 = tested on: OVCAR-5
OVCAR-4 = tested on: OVCAR-4
SR = tested on: SR
SK-MEL-5 = tested on: SK-MEL-5
HL-60 = tested on: HL-60
A549 = tested on: A549
SF-539 = tested on: SF-539
BT-549 = tested on: BT-549
DU-145 = tested on: DU-145
Hs-578T = tested on: Hs-578T

Compound: c1ccc2c(c1)C1=NCCN1c1ccccc1-2
- GI50 (SK-MEL-2): 3.19 µM (inactive)
- GI50 (Malme-3M): 2.64 µM (inactive)
- GI50 (TK-10): 2.49 µM (inactive)
- GI50 (786-0): 2.6 µM (inactive)
- GI50 (SK-OV-3): 4.9 µM (inactive)
- GI50 (NCI-H23): 2.72 µM (inactive)
- GI50 (SF-268): 3.46 µM (inactive)
- GI50 (A498): 3.18 µM (inactive)
- GI50 (MOLT-4): 1.85 µM (inactive)
- GI50 (CAKI-1): 2.6 µM (inactive)
- GI50 (OVCAR-5): 3.47 µM (inactive)
- GI50 (OVCAR-4): 2.91 µM (inactive)
- GI50 (SR): 0.502 µM (active)
- GI50 (SK-MEL-5): 2.49 µM (inactive)
- GI50 (HL-60): 2.42 µM (inactive)
- GI50 (A549): 3.97 µM (inactive)
- GI50 (SF-539): 2.78 µM (inactive)

Compound: N#CCCN(CCCN(C(=O)Nc1ccccc1)c1ccccc1)C(=O)Nc1ccccc1
- GI50 (SK-MEL-2): > 100 µM (inactive)
- GI50 (Malme-3M): > 100 µM (inactive)
- GI50 (TK-10): > 100 µM (inactive)
- GI50 (786-0): > 100 µM (inactive)
- GI50 (SK-OV-3): > 100 µM (inactive)
- GI50 (NCI-H23): 61.7 µM (inactive)
- GI50 (BT-549): > 100 µM (inactive)
- GI50 (DU-145): > 100 µM (inactive)
- GI50 (MOLT-4): 32.6 µM (inactive)
- GI50 (CAKI-1): 15 µM (inactive)
- GI50 (OVCAR-5): > 100 µM (inactive)
- GI50 (OVCAR-4): > 100 µM (inactive)
- GI50 (SR): > 100 µM (inactive)
- GI50 (SK-MEL-5): > 100 µM (inactive)
- GI50 (HL-60): 27.2 µM (inactive)
- GI50 (A549): 78.9 µM (inactive)
- GI50 (SF-539): > 100 µM (inactive)

Compound: C[C@@H](c1ccccc1)N1CO[C@@]2(C#Cc3ccc4c(c3)OCO4)CCC[C@@H]12
- GI50 (SK-MEL-2): 18.3 µM (inactive)
- GI50 (TK-10): 15.5 µM (inactive)
- GI50 (786-0): 17.8 µM (inactive)
- GI50 (SK-OV-3): 17.4 µM (inactive)
- GI50 (NCI-H23): 14.7 µM (inactive)
- GI50 (Hs-578T): 15.9 µM (inactive)
- GI50 (DU-145): 16.1 µM (inactive)
- GI50 (MOLT-4): 9.59 µM (inactive)
- GI50 (CAKI-1): 16.3 µM (inactive)
- GI50 (OVCAR-5): 18.1 µM (inactive)
- GI50 (OVCAR-4): 13.8 µM (inactive)
- GI50 (SR): 8.67 µM (inactive)
- GI50 (SK-MEL-5): 13.1 µM (inactive)
- GI50 (HL-60): 7.94 µM (inactive)
- GI50 (A549): 14.8 µM (inactive)

Compound: Cn1c(=O)c2nc3sc4ccccc4c(=N)n3c2n(C)c1=O
- GI50 (SK-MEL-2): > 100 µM (inactive)
- GI50 (Malme-3M): > 100 µM (inactive)
- GI50 (TK-10): > 100 µM (inactive)
- GI50 (786-0): > 100 µM (inactive)
- GI50 (SK-OV-3): > 100 µM (inactive)
- GI50 (NCI-H23): > 100 µM (inactive)
- GI50 (SF-268): > 100 µM (inactive)
- GI50 (A498): > 100 µM (inactive)
- GI50 (MOLT-4): > 100 µM (inactive)
- GI50 (CAKI-1): > 100 µM (inactive)
- GI50 (OVCAR-5): > 100 µM (inactive)
- GI50 (OVCAR-4): > 100 µM (inactive)
- GI50 (SR): > 100 µM (inactive)
- GI50 (SK-MEL-5): > 100 µM (inactive)
- GI50 (HL-60): > 100 µM (inactive)
- GI50 (A549): > 100 µM (inactive)
- GI50 (SF-539): > 100 µM (inactive)

Compound: Cc1ccc([S+]([O-])c2ccccc2[N+](=O)[O-])cc1 (centres undefined)
- GI50 (SK-MEL-2): > 100 µM (inactive)
- GI50 (Malme-3M): > 100 µM (inactive)
- GI50 (TK-10): > 100 µM (inactive)
- GI50 (786-0): > 100 µM (inactive)
- GI50 (SK-OV-3): > 100 µM (inactive)
- GI50 (NCI-H23): 32.6 µM (inactive)
- GI50 (A498): 28.1 µM (inactive)
- GI50 (MOLT-4): 41.3 µM (inactive)
- GI50 (CAKI-1): 43.9 µM (inactive)
- GI50 (OVCAR-5): 72.1 µM (inactive)
- GI50 (OVCAR-4): 39.1 µM (inactive)
- GI50 (SR): 46 µM (inactive)
- GI50 (SK-MEL-5): 70 µM (inactive)
- GI50 (HL-60): 29.1 µM (inactive)
- GI50 (A549): 70.1 µM (inactive)
- GI50 (SF-539): 58.5 µM (inactive)

Compound: CCP(=O)(OC)C1=CCN(C(=O)OCC[Si](C)(C)C)CC1 (centres undefined)
- GI50 (SK-MEL-2): > 100 µM (inactive)
- GI50 (Malme-3M): > 100 µM (inactive)
- GI50 (TK-10): > 100 µM (inactive)
- GI50 (786-0): > 100 µM (inactive)
- GI50 (SK-OV-3): > 100 µM (inactive)
- GI50 (NCI-H23): > 100 µM (inactive)
- GI50 (SF-268): > 100 µM (inactive)
- GI50 (Hs-578T): > 100 µM (inactive)
- GI50 (A498): > 100 µM (inactive)
- GI50 (DU-145): > 100 µM (inactive)
- GI50 (MOLT-4): > 100 µM (inactive)
- GI50 (CAKI-1): > 100 µM (inactive)
- GI50 (OVCAR-5): > 100 µM (inactive)
- GI50 (OVCAR-4): > 100 µM (inactive)
- GI50 (SK-MEL-5): > 100 µM (inactive)
- GI50 (HL-60): > 100 µM (inactive)
- GI50 (A549): > 100 µM (inactive)
- GI50 (SF-539): 72.9 µM (inactive)

Compound: Ic1ncnc2c1ncn2C1CCCO1 (centres undefined)
- GI50 (SK-MEL-2): > 100 µM (inactive)
- GI50 (Malme-3M): > 100 µM (inactive)
- GI50 (TK-10): > 100 µM (inactive)
- GI50 (786-0): > 100 µM (inactive)
- GI50 (SK-OV-3): > 100 µM (inactive)
- GI50 (NCI-H23): > 100 µM (inactive)
- GI50 (SF-268): > 100 µM (inactive)
- GI50 (A498): > 100 µM (inactive)
- GI50 (MOLT-4): > 100 µM (inactive)
- GI50 (CAKI-1): > 100 µM (inactive)
- GI50 (OVCAR-5): > 100 µM (inactive)
- GI50 (OVCAR-4): > 100 µM (inactive)
- GI50 (SR): > 100 µM (inactive)
- GI50 (SK-MEL-5): > 100 µM (inactive)
- GI50 (HL-60): > 100 µM (inactive)
- GI50 (A549): > 100 µM (inactive)
- GI50 (SF-539): > 100 µM (inactive)

Compound: CCOc1ccccc1NC(=O)CCC(=O)NN
- GI50 (SK-MEL-2): > 100 µM (inactive)
- GI50 (Malme-3M): > 100 µM (inactive)
- GI50 (TK-10): > 100 µM (inactive)
- GI50 (786-0): > 100 µM (inactive)
- GI50 (SK-OV-3): > 100 µM (inactive)
- GI50 (NCI-H23): > 100 µM (inactive)
- GI50 (SF-268): > 100 µM (inactive)
- GI50 (A498): > 100 µM (inactive)
- GI50 (MOLT-4): > 100 µM (inactive)
- GI50 (CAKI-1): > 100 µM (inactive)
- GI50 (OVCAR-5): > 100 µM (inactive)
- GI50 (OVCAR-4): > 100 µM (inactive)
- GI50 (SR): 2.75 µM (inactive)
- GI50 (SK-MEL-5): > 100 µM (inactive)
- GI50 (HL-60): > 100 µM (inactive)
- GI50 (A549): > 100 µM (inactive)
- GI50 (SF-539): > 100 µM (inactive)
